# Test results: ChEMBL document CHEMBL1201862, “PubChem BioAssay data set” (2004)
# Calls of active or inactive are those of the source.
# What was measured:
# [1] = target: Lysosomal acid glucosylceramidase (Homo sapiens, UniProt P04062); test: Dose response cell-based high throughput screening assay to identify enhancers of beta-glucosidase activity. [Related pubchem assays: 784 ]; format: functional
# Cytochrome P450 2C9 = Cytochrome P450 2C9 (Homo sapiens, UniProt P11712); settings: Potency
# Cytochrome P450 3A4 = Cytochrome P450 3A4 (Homo sapiens, UniProt P08684); settings: Potency;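 also: confirmatory qHTS run detecting inhibitors and substrates of CYP3A4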
# [2] = target: Eukaryotic translation initiation factor 4H (Homo sapiens, UniProt Q15056); test: eIF4H binding inhibition – biochemical, uHTS, fluorescence polarization, translation initiation inhibitor project, primary screen (AID 2012)
# [3] = target: Polyadenylate-binding protein 1 (Homo sapiens, UniProt P11940); test: blockers of PABP interaction with poly(A) – biochemical, fluorescence polarization, […] (AID 2014)
# Sequence of Polyadenylate-binding protein 1 (P11940 whole entry): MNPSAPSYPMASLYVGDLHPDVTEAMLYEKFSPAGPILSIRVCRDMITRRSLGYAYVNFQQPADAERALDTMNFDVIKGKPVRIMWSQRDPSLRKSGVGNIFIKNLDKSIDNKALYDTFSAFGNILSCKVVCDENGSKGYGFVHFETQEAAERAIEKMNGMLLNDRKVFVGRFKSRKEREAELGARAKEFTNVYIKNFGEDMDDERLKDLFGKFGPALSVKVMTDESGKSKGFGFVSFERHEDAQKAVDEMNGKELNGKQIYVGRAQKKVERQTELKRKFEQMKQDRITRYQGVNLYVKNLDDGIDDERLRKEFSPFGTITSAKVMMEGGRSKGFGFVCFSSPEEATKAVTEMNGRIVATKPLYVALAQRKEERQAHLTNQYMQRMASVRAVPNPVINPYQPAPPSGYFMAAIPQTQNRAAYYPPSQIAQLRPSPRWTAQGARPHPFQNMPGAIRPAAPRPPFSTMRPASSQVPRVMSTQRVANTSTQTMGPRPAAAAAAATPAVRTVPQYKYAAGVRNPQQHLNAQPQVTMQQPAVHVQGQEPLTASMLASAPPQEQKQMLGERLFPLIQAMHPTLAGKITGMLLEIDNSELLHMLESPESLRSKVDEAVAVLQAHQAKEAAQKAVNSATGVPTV
# [4] = target: Peroxisome proliferator-activated receptor gamma/Nuclear receptor corepressor 2 (Homo sapiens, UniProt P37231+Q9Y618); format: functional
# [5] = target: Peroxisome proliferator-activated receptor gamma/Nuclear receptor coactivator 2 (Homo sapiens, UniProt P37231); test: (§1) TR-FRET dose response biochemical High Throughput Screening assay for agonists of the steroid receptor coactivator 2 (SRC-2) recruitment by the peroxisome proliferator-activated receptor gamma (PPAR gamma): non-selective agonists. [Related pubchem assays: 1297, 1032 ]; format: functional
# Sequence of Peroxisome proliferator-activated receptor gamma/Nuclear receptor coactivator 2 (P37231 whole entry): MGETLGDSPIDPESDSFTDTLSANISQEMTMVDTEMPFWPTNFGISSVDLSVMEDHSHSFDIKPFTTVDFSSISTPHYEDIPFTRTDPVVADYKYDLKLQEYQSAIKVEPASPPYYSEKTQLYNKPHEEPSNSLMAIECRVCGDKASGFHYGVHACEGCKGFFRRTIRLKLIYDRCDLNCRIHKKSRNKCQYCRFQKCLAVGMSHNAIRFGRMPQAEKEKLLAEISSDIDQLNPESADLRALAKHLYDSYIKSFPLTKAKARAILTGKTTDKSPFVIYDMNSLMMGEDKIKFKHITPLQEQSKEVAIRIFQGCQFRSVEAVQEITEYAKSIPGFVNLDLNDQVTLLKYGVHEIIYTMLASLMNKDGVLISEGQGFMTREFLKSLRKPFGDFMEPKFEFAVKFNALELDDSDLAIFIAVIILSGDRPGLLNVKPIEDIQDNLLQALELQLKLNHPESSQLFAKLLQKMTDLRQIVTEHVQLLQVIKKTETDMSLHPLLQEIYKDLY
# Sequence of Peroxisome proliferator-activated receptor gamma/Nuclear receptor coactivator 2 (Q15596 whole entry, further chain): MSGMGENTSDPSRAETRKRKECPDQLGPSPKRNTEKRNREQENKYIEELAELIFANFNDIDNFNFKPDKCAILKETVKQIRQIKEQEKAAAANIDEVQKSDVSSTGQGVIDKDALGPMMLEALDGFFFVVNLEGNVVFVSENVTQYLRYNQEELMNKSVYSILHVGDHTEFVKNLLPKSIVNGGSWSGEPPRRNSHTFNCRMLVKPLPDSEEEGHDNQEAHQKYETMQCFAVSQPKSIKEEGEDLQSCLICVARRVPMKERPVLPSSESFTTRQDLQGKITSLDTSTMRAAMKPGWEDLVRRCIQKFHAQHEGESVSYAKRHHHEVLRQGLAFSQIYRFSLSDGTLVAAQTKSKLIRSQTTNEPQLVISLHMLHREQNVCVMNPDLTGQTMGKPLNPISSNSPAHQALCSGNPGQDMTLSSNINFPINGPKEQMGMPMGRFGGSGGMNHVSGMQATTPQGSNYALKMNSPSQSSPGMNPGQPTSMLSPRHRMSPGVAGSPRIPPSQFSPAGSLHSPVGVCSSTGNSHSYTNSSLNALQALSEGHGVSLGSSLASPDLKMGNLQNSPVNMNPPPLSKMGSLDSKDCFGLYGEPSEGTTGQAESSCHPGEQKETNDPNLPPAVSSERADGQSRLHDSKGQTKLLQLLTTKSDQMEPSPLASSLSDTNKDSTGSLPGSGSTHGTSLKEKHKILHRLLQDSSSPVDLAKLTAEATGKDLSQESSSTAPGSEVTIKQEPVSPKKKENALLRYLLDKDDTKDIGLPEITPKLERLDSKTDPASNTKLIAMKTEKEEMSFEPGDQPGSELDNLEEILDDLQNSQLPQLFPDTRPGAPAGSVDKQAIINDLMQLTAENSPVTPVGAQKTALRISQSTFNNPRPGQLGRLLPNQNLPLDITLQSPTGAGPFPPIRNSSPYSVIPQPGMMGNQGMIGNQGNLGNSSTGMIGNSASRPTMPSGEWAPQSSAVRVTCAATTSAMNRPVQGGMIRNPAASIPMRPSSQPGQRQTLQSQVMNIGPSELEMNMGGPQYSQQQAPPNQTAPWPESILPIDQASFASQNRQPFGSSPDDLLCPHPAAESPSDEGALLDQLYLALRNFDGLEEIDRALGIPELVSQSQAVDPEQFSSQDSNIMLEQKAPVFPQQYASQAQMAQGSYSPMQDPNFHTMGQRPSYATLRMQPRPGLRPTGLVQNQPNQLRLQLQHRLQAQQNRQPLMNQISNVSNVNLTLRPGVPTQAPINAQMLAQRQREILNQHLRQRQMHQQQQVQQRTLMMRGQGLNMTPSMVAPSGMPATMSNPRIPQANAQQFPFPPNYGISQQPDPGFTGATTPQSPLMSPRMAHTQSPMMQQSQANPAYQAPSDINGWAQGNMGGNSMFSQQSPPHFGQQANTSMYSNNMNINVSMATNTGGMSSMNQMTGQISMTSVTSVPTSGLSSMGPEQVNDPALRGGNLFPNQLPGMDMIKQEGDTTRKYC
# [6] = target: Peroxisome proliferator-activated receptor gamma/Nuclear receptor coactivator 1 (Homo sapiens, UniProt P37231); test: as §1, with “1 (SRC-1)” for “2 (SRC-2)”, “assays (depositor defined):AID1300, AID1808, AID504735, AID631]” for “assays: 1297, 1032 ]”; format: protein assay
# Leucine aminopeptidase = target: T1, Leucine aminopeptidase (Plasmodium falciparum 3D7, UniProt Q8IL11); test: P. falciparum M17LAP inhibitors, primary screen, biochemical, fluorogenic H-Leu-NHMec substrate, 1536-well (AID 1619); format: functional
# T1 sequence (Q8IL11 whole entry): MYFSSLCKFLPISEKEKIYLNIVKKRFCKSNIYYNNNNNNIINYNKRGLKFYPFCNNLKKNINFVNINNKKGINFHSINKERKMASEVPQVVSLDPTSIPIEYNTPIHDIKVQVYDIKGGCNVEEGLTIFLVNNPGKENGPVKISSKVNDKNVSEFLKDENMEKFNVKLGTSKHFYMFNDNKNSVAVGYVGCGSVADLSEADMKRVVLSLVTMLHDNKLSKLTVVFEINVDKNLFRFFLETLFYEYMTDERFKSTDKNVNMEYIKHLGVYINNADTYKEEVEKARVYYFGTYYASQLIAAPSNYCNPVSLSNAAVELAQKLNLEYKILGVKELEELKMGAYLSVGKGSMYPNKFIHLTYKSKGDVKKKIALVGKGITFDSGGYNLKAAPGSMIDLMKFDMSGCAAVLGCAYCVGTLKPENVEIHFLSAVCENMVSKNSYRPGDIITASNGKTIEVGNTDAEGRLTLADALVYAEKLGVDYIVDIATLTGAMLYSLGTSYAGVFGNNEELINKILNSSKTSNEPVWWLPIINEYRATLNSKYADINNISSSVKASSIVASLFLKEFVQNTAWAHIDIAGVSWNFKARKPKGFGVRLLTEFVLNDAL
# [7] = target: Photoreceptor-specific nuclear receptor (Homo sapiens, UniProt Q9Y5X4); format: functional;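 also: potency for compounds that break the NR2E3 corepressor complex and count as activators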
# Sequence of Photoreceptor-specific nuclear receptor (Q9Y5X4 whole entry): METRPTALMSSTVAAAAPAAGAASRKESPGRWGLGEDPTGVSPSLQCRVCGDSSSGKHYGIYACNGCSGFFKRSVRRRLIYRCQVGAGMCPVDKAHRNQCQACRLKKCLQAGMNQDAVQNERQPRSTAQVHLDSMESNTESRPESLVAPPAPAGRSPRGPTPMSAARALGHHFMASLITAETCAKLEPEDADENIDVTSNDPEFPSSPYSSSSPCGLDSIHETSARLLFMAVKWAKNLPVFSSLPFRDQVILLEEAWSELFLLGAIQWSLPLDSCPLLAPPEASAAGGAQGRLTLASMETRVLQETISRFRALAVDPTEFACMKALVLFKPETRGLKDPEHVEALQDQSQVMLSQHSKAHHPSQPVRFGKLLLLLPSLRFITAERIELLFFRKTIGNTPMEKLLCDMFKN
# [8] = target: Peroxisome proliferator-activated receptor gamma/Nuclear receptor coactivator 3 (Homo sapiens, UniProt P37231); test: as §1, with “3 (SRC-3)” for “2 (SRC-2)”, “1301 (Confirmation screen.), 1048 (Primary screen.)]” for “1297, 1032 ]”; format: functional
# [9] = target: Acyl-homoserine lactone acylase PvdQ (Pseudomonas aeruginosa (strain LESB58), UniProt Q9I194); test: PvdQ acylase enzyme activity blockers – biochemical, fluorescence, plate reader and imaging, cherry-picks, dose response (AID 493231)
# Procathepsin L = Procathepsin L (Homo sapiens, UniProt P07711)
# Sequence of Procathepsin L (P07711 whole entry): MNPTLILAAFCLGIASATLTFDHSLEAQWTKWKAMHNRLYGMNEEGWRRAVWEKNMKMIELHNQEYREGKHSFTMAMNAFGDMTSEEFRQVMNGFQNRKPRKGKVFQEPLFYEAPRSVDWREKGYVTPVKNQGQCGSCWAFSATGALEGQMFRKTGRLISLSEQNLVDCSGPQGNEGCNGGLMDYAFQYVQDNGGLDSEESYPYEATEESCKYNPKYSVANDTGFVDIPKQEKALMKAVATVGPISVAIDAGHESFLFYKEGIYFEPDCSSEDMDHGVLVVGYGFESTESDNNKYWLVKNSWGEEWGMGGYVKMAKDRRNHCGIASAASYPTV
# [10] = target: T2, Heat shock factor protein 1 (Mus musculus, UniProt P38532); test: decrease of HSF1-responsive luciferase luminescence – cell-based, NIH3T3, dose retest, confirmation (AID 2382); format: functional;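 also: NIH3T3 fibroblasts with HSF1-driven luciferase reporter stressed by proteasome inhibitor MG132; luminescence from HSF1-driven luciferase expression after 8 hours of MG132 stress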
# T2 sequence (P38532 whole entry): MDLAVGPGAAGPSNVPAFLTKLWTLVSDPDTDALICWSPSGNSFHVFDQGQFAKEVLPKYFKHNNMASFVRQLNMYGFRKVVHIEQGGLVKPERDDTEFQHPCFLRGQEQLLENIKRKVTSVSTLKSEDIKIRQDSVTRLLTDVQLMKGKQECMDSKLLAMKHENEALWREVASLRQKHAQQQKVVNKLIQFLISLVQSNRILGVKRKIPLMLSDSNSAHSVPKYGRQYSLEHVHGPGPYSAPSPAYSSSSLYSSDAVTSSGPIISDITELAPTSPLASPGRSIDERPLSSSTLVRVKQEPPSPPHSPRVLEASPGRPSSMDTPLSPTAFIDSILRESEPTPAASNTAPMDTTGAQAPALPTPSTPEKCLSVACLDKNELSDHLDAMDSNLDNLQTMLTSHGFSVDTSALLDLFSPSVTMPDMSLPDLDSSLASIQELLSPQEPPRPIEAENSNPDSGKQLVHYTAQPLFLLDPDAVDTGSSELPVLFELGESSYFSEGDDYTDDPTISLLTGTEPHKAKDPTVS
# Aspartyl aminopeptidase = Aspartyl aminopeptidase (Plasmodium falciparum 3D7, UniProt Q8I2J3)
# Sequence of Aspartyl aminopeptidase (Q8I2J3 whole entry): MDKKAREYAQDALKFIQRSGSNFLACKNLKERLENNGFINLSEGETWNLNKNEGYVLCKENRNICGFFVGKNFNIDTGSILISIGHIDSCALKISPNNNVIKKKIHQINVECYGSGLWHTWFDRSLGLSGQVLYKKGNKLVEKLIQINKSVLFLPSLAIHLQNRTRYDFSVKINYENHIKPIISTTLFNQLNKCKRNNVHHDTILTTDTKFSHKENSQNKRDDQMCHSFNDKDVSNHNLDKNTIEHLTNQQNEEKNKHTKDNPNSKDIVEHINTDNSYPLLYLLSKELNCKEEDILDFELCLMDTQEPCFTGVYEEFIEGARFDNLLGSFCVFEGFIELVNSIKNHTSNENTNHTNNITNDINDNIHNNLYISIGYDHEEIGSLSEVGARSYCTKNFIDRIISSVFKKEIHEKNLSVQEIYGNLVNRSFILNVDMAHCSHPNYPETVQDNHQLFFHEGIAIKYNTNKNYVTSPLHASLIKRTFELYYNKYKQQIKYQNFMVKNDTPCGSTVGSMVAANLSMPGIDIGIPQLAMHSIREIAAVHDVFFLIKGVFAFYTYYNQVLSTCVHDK
# cells = format: functional
# [11] = Counterscreen for AddAB inhibitors: absorbance-based bacterial cell-based high throughput dose response assay for inhibitors of bacterial viability. [Related pubchem assays (depositor defined):AID435030, AID449728, AID449731, AID488942, AID488955, AID488956]; format: functional
# [12] = THP-1 cell cytotoxicity, dose response, cytotoxicity control for non-replicating M. tuberculosis project (AID 489025); format: functional
# Exodeoxyribonuclease V = target: T3, Exodeoxyribonuclease V (Escherichia coli (strain K12), UniProt P04993+P07648+P08394); test: RecBCD inhibition via phage-restricted bacterial growth – absorbance, V66 E. coli, mutant T4 phage, counter-screen for AddAB inhibitor project, dose response (AID 492957); format: functional, cell-based, Escherichia coli str. K-12 substr. MG1655
# T3 sequence (P04993 whole entry): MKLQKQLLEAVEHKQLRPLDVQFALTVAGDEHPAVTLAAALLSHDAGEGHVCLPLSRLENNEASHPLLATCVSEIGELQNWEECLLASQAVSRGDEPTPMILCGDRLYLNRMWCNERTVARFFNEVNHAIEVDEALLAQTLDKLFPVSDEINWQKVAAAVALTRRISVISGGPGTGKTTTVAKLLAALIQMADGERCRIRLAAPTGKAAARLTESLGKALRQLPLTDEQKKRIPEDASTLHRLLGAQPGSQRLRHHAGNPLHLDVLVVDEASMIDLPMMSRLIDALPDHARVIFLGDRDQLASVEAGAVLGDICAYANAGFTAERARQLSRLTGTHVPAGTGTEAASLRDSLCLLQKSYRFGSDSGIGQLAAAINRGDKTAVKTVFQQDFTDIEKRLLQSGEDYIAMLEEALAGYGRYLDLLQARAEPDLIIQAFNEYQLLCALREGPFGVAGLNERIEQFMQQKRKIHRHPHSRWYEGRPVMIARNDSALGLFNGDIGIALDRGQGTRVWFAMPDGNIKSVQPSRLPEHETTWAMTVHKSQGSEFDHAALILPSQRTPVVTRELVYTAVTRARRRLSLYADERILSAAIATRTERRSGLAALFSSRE
# T3 sequence (P07648 whole entry): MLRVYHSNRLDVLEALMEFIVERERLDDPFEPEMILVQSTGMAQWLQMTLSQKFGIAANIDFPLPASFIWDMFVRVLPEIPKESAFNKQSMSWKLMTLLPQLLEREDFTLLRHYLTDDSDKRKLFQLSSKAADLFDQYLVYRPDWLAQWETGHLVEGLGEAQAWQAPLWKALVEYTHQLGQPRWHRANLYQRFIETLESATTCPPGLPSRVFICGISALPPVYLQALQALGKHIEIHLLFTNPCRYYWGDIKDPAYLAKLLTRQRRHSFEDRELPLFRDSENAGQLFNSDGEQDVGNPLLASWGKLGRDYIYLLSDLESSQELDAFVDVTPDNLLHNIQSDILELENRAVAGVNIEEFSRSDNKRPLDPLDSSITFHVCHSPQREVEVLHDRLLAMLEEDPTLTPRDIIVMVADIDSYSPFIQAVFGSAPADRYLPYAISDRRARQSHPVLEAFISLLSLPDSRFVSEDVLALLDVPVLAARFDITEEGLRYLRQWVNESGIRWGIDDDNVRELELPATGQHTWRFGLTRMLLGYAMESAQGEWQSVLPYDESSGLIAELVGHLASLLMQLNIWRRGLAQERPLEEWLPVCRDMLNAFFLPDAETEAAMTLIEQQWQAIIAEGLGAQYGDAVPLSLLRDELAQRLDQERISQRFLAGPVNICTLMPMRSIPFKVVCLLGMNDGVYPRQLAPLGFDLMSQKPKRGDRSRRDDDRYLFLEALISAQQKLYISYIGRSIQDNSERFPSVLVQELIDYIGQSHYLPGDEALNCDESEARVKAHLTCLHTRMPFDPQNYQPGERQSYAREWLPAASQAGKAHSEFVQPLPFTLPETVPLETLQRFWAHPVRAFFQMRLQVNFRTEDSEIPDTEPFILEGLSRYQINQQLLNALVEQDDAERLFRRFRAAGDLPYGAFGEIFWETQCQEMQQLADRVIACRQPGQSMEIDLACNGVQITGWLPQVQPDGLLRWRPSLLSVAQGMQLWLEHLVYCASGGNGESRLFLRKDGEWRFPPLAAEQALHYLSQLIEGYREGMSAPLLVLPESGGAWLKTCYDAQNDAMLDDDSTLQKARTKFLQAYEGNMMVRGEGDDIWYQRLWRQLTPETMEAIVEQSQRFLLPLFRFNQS
# T3 sequence (P08394 whole entry): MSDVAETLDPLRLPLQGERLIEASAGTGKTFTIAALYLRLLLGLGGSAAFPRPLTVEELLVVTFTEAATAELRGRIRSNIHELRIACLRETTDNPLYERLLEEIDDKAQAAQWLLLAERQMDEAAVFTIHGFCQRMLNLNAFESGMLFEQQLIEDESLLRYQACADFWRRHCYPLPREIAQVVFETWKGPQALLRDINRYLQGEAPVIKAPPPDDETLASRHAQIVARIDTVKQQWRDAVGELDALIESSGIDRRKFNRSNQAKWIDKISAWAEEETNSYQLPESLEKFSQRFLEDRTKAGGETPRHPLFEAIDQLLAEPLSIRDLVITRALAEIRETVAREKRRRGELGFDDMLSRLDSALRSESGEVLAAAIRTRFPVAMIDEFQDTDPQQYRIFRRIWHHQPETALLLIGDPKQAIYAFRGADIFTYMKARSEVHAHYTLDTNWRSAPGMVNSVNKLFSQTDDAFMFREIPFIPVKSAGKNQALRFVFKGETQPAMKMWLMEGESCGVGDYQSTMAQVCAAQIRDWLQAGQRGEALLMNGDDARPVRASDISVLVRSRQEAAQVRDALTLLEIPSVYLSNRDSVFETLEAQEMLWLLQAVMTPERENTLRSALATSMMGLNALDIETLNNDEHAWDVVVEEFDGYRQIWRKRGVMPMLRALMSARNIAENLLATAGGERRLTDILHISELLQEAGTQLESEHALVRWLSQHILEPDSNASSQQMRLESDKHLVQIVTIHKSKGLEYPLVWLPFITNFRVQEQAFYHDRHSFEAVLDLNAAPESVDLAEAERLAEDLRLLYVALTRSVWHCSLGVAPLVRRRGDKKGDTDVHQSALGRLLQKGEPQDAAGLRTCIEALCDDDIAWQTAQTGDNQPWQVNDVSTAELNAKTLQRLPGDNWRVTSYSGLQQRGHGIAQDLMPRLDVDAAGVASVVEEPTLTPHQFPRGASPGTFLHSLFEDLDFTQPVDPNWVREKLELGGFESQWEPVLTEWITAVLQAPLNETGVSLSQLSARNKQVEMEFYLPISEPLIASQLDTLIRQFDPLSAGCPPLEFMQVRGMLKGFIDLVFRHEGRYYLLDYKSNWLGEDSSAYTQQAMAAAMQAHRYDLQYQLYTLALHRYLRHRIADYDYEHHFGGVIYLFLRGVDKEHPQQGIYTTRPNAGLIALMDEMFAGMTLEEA
# Sequence of Cytochrome P450 2C9 (P11712 whole entry): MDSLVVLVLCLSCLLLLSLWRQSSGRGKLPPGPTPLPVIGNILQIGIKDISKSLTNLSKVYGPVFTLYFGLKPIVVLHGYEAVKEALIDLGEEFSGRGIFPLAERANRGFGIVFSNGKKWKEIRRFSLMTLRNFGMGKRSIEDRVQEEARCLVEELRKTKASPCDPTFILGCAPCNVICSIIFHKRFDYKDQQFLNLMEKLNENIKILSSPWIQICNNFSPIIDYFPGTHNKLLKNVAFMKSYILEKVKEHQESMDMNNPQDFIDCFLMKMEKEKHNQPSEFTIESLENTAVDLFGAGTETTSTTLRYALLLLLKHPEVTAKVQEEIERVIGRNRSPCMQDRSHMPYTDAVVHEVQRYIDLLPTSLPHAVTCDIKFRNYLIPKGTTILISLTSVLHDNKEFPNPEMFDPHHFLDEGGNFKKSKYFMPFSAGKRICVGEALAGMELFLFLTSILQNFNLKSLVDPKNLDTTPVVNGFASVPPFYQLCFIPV
smiles,measurement,setting,value
Cc1cccn2c(=O)c(/C=N/c3ccc(Cl)cc3)c(NCCO)nc12,EC50,[1],> 50 µM (not active)
C[C@]12C=CC(=O)C=C1CC[C@@H]1[C@H]3C[C@@H](O)[C@](O)(C(=O)CO)[C@]3(C)C[C@H](O)[C@]12F,AC50,Cytochrome P450 2C9,25.1 µM (inconclusive)
Nc1ccc(Cl)cc1Cl,AC50,Cytochrome P450 3A4,31.6 µM (inconclusive)
Cn1c(SCC(=O)NC(C)(C)C)nnc1-c1cccc(NC(=O)c2ccccc2F)c1,IC50,[2],> 100 µM (inactive)
same,IC50,[3],7.07 µM (active)
Cn1c(=S)[nH]c2c(c1=O)C(C)(C)Cc1ccccc1-2,IC50,[4],3.98 µM (active)
same,EC50,[5],> 79.4 µM (not active)
same,EC50,[6],> 79.4 µM (inactive)
same,IC50,Leucine aminopeptidase,1.9 µM (active)
same,IC50,[7],> 39.8 µM (not active)
same,EC50,[8],> 79.4 µM (not active)
CCOC(=O)c1ccc(N2Cc3ccccc3C2)cc1O,AC50,[9],> 100 µM (inactive)
Cc1c(C(=O)c2no[n+]([O-])c2C(=O)c2cnn(C)c2C)cnn1C,IC50,Procathepsin L,> 59.6 µM (not active)
same,EC50,[10],5.9 µM (active)
same,IC50,Aspartyl aminopeptidase,1.58 µM (active)
NC(=NOC(=O)c1ccc(Cl)cc1)c1ncc([N+](=O)[O-])s1,IC50,cells,19.2 µM (active)
same,IC50,[11],118 µM (inactive)
same,CC50,[12],> 40 µM (active)
same,IC50,Exodeoxyribonuclease V,> 119 µM (inactive)
